For two compounds, inhibition and IC50 results are on record in paper PMC8309073, “Collagenase and Tyrosinase Inhibitory Effect of Isolated Constituents from the Moss Polytrichum formosum” (Plants, 2021).

Assay [1] concerns the target T1, mushroom tyrosinase (Agaricus bisporus, UniProt C7FF04).
T1 construct: gene PPO3; T3824-250KU, Sigma-Aldrich
As to the kind of experiment: spectrophotometric L-tyrosine to dopachrome assay, […] nm; also retained in Target Binding (RA […], reference). In kind it is biochemical.

Assay [2] addresses collagenase. Nature of the assay: FALGPA hydrolysis assay; also retained in Target Binding ultrafiltration UHPLC-MS (RA […]). The assay is classed as biochemical, Hathewaya histolytica.
In assay [3] the target is collagenase. Nature of the assay: FALGPA hydrolysis assay (compound purity […]); also retained in Target Binding ultrafiltration UHPLC-MS (RA […]). In kind it is biochemical, Hathewaya histolytica.

T1 sequence (C7FF04 2-392): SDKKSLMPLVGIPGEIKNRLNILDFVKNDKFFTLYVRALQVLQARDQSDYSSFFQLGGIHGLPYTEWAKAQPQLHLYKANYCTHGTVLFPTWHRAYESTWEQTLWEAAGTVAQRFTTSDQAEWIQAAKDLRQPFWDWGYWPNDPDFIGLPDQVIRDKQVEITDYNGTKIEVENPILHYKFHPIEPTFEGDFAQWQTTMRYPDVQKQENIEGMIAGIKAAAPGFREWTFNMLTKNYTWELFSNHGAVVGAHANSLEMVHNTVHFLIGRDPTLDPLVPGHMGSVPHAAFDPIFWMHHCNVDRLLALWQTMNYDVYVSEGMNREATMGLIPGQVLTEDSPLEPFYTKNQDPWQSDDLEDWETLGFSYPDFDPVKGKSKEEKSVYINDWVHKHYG

As for `O=C1C[C@@H]2c3ccccc3O[C@H]3c4cc(O)ccc4-c4c(O)cc(O)c1c4[C@H]23` [compound 1, ohioensin A], the inhibition (in general, the relative decrease from the control value, in per cent) at 200 µM in assay [1] was determined as 30%. For the same compound, the IC50 – broadly, the concentration that inhibits the measured activity by half – in assay [2] turned out to be 72 µM.

On to `O=C1C[C@@H]2c3ccccc3O[C@H]3c4ccc(O)c(O)c4-c4c(O)cc(O)c1c4[C@H]23` [compound 2, nor-ohioensin D], for which, in assay [3], the half-inhibitory concentration (IC50) amounted to 167 µM.
